The values that follow come from patent publication US20260167927A1, “GLOMUS CELL-LIKE CELLS AND PRODUCTION METHOD THEREOF” (NATIONAL INSTITUTE OF ADVANCED INDUSTRIAL SCIENCE AND …, priority 2022, published 2026).

For the experiment, the system named is glomus cell-like cells. The experiment can be described thus: ATP production by glomus cell-like cells in response to hypoxic stimulation with ion channel inhibitors. The class given is cell-based, human. The conditions noted are these: for effect on ATP production in response to hypoxic stimulation: 2% O2, 10 to 30 minutes, vs KRB without inhibitor. The protocol:
Glomus cell-like cells on days 16 to 19 of induction were used. With Krebs-Ringer buffer (KRB: 120 mM of NaCl, 5 mM of KCI, 25 mM of NaHCO3, 2.5 mM of CaCI2, 1.1 mM of MgCl2, 0.1% bovine serum albumin, 2.8 mM of glucose, pH 7.2), glomus cell-like cells were washed twice. After adding KRB, the cells were incubated in a hypoxic CO2 incubator (2% O2) for 10 to 30 minutes. The supernatant was collected, and then ATP was measured using the ATP Determination Kit (Thermo Fisher Scientific: A22066). Cells were lysed in RIPA buffer (FUJIFILM Wako Pure Chemical Corporation: 182-02451), and the total protein content was determined using a Pierce™ BCA Protein Assay Kit (Thermo Fisher Scientific: 23225). ATP measurement results were corrected according to the total protein content.
Using KRB containing the K^+ channel inhibitor tetraethylammonium chloride (FUJIFILM Wako Pure Chemical Corporation: 206-04501) (final concentration: 5 mM), the Ca^2+ channel inhibitor nifedipine (FUJIFILM Wako Pure Chemical Corporation: 141-05783) (final concentration: 5 μM), or the Na^+ channel inhibitor lidocaine (FUJIFILM Wako Pure Chemical Corporation: 120-02691) (final concentration: 1 μM), cells were subjected to hypoxic stimulation using the procedure described in (3-1) above, and the amount of ATP production was analyzed. KRB without ion channel inhibitors was used as a control to analyze ATP production similarly.

Consider apyrase, for which, under “apyrase (ATPase) 2 U/mL added, FIG. 11”, the “ATP detected after hypoxic stimulation” value is recorded as “no ATP was detected”.

For the compound `CC[N+](CC)(CC)CC.[Cl-]` [tetraethylammonium chloride], the “effect on ATP production in response to hypoxic stimulation” value (tetraethylammonium chloride 5 mM in KRB) is “promoting effect”.

Regarding `CCN(CC)CC(=O)Nc1c(C)cccc1C` [lidocaine, Lidocaine], the “effect on ATP production in response to hypoxic stimulation” value (lidocaine 1 μM in KRB) is on record as “inhibitory effect”.
